Measurements taken from patent US20100048529A1, “New 2-Azetidinone Derivatives Useful In The Treatment Of Hyperlipidaemic Conditions” (ASTRAZENECA AB, priority 2005, published 2010).

System: 14C-cholesterol absorption
Conditions: 0.2 μmol/kg by gavage, C57BL/6 female mice, procedure A
Experimental: In Vivo Testing of Cholesterol Absorption Inhibitors (A)
C57BL/6 female mice were maintained on regular chow diet and housed in individual cages to collect faeces. Mice were fasted for 3 hours and then gavaged with vehicle or compound. Half an hour later the mice were gavaged with radiolabelled cholesterol. Six hours after the ^14C-cholesterol gavage blood samples were taken via the tail and plasma prepared to determine how much cholesterol were absorbed. 24 hours after the gavage of ^14C-cholesterol the mice were bled and plasma were prepared for analysis. Faeces were collected for 24 hours to assess absorption efficiency.

CC(C)(c1ccccc1)[C@@H](NC(=O)CNC(=O)COc1ccc([C@@H]2[C@@H](SCC(O)c3ccc4c(c3)CCO4)C(=O)N2c2ccc(F)cc2)cc1)C(=O)NCC(=O)O (stereo partly drawn) [Example 1, N-({4-[(2R,3R)-3-{[2-(2,3-dihydro-1-benzofuran-5-yl)-2-hydroxyethyl]thio}-1-(4-fluorophenyl)-4-oxoazetidin-2-yl]phenoxy}acetyl)glycyl-b,b-dimethyl-D-phenylalanylglycine]
inhibition of 14C-cholesterol absorption: 36%
